Experimental data taken from patent US20250171434A1, “SEC61 INHIBITORS AND USE THEREOF” (KEZAR LIFE SCIENCES, INC., priority 2022, published 2025).

Key:
[1] = Liver Microsome Stability Assay, mouse; assay type: in vitro ADME; details: mouse liver microsomes 1.0 mg/mL, 1.0 uM compound, 37° C., 1 mM NADPH
Method in brief: (§1)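 Stability was judged from samples quenched at 0 and 30 minutes after incubating 1.0 uM compound with 1.0 mg/mL liver microsomes at 37° C, plus or minus 1 mM NADPH, in 0.1 M potassium phosphate containing 0.4% DMSO.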

[2] = system: IL6R-ss+10aa/Gaussia Luciferase; assay: Dox-induced IL-6R-ss-Gluc Assay; assay type: cell-based; details: Table 1; for IC50: Flp-In 293 T-REx cells, 24 hours with doxycycline, read-out: 24hr Dox Inducible IL6R(ss + 10)Gluc 293FRT/TO: Mean IC50; for 24hr Dox Inducible IL6R(ss + 10)Gluc 293FRT/TO: IL6R/PD1: ratio of IC50s IL6R/PD1
Method in brief: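 Flp-In 293 T-REx cells stably carrying a doxycycline-inducible IL6R signal sequence+10 aa fused to Gaussia luciferase. Cells plated the day before; compound dilutions added in DMSO/media containing doxycycline and incubated at 37 °C, 5% CO2.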

[3] = system: PD1-ss+10aa/Gaussia Luciferase; assay: Dox-Induced PD1-ss-Gluc Assay; assay type: cell-based; details: Flp-In 293 T-REx cells, 24 hours with doxycycline; Table 1; read-out: 24 hr Dox Inducible PD1ssGluc 293FRT/TO: Mean IC50
Method in brief: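 Doxycycline-induced expression of a PD1-ss+10aa/Gaussia luciferase reporter is measured in stable Flp-In 293 T-REx cells. Compound dilutions containing doxycycline are added one day after plating and incubated at 37 °C, 5% CO2. Values for unassigned stereocentres refer to stereoisomer mixtures.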

[4] = system: IL-2-FL/Gaussia Luciferase; assay: Dox Inducible IL2-FL-Gluc Assay; assay type: cell-based; details: Table 1; for IC50: Flp-In 293 T-REx cells, 24 hours with doxycycline, read-out: 24 hr Dox Inducible IL2FLGluc 293FRT/TO: Mean IC50; for 24 hr Dox Inducible IL2FLGluc 293FRT/TO: IL2/PD1: ratio of IC50s IL2/PD1
Method in brief: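 Stable Flp-In 293 T-REx line, Tet-regulated IL-2 (aa 1-153)–Gaussia luciferase fusion; hygromycin/blasticidin selected. Plated day -1; compound + doxycycline added next day; 37° C, 5% CO2.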

[5] = Liver Microsome Stability Assay, rat; assay type: in vitro ADME; details: rat liver microsomes 1.0 mg/mL, 1.0 uM compound, 37° C., 1 mM NADPH
Method in brief: as §1

[6] = system: multiple myeloma cell line NCI-H929; assay: H929 Cell Viability Assay; assay type: cell-based, human; details: Homo sapiens; NCI-H929 cells, 48 hours, Celltiter-Glo; read-out: 48 hr H929 Viability Celltiter-Glo: Mean EC50
Method in brief: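 Cells in RPMI 1640/10% FBS; compound dilutions in DMSO/media; 48 h, 37° C, 5% CO2; CellTiter-Glo luciferase readout for viability.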

[7] = Liver Microsome Stability Assay, human; assay type: in vitro ADME; details: human liver microsomes 1.0 mg/mL, 1.0 uM compound, 37° C., 1 mM NADPH
Method in brief: as §1

[8] = Liver Microsome Stability Assay, monkey; assay type: in vitro ADME; details: monkey liver microsomes 1.0 mg/mL, 1.0 uM compound, 37° C., 1 mM NADPH
Method in brief: as §1

CD47(ss + 10)Gluc = assay: Dox-Induced CD47-ss-Gluc Assay; assay type: cell-based; details: Flp-In 293 T-REx cells, 24 hours with doxycycline; Table 1; read-out: 24 hr Dox Inducible CD47(ss + 10)Gluc 293FRT/TO: Mean IC50
[9] = system: multiple myeloma cell line U266B1; assay: U266 Cell Viability Assay; assay type: cell-based; details: Homo sapiens, U-266; U266B1 cells, 48 hours, Celltiter-Glo; read-out: 48 hr U266 Viability Celltiter-Glo: Mean EC50
Method in brief: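 Luminescent ATP read-out (CellTiter-Glo) after 48 h compound exposure at 37° C., 5% CO2; cells maintained in RPMI 1640/10% FBS/2 mM glutamine/pen-strep, compounds diluted in DMSO/media.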

Row | SMILES | Liver Microsome Stability (Multiple Species): Mouse - % Remaining after 30 min w/ NADPH (%) [1] | IC50 [2] | 24hr Dox Inducible IL6R(ss + 10)Gluc 293FRT/TO: IL6R/PD1 [2] | IC50 [3] | IC50 [4] | 24 hr Dox Inducible IL2FLGluc 293FRT/TO: IL2/PD1 [4] | Liver Microsome Stability (Multiple Species): Rat - % Remaining after 30 min w/ NADPH (%) [5] | EC50 [6] | Liver Microsome Stability (Multiple Species): Human - % Remaining after 30 min w/ NADPH (%) [7] | Liver Microsome Stability (Multiple Species): Monkey - % Remaining after 30 min w/ NADPH (%) [8] | IC50 (CD47(ss + 10)Gluc) | EC50 [9]
1 | Cc1cnc(F)cc1Cn1cc(OC(F)F)cc1C(=O)Nc1nc(/C=C/c2ncn(C3CC3)c2Cl)cs1 [Compound A24, (E)-N-(4-(2-(5-chloro-1-cyclopropyl-1H-imidazol-4-yl)vinyl)thiazol-2-yl)-4-(difluoromethoxy)-1-((2-fluoro-5-methylpyridin-4-yl)methyl)-1H-pyrrole-2-carboxamide] | 77% | 9.97 µM | 1283 | 0.008 µM | 11.5 µM | 1100.0 | 30% | > 25 µM | 20% | 12% | 5.53 µM | > 25 µM
2 | Cc1cnc(F)c(C)c1Cn1cc(OC(F)F)cc1C(=O)Nc1nc(/C=C/c2ncn(C3CC3)c2Cl)cs1 [Compound A26, (E)-N-(4-(2-(5-chloro-1-cyclopropyl-1H-imidazol-4-yl)vinyl)thiazol-2-yl)-4-(difluoromethoxy)-1-((2-fluoro-3,5-dimethylpyridin-4-yl)methyl)-1H-pyrrole-2-carboxamide] | 70% | > 25 µM | 28 | 0.877 µM | > 25 µM | >22 | 40% | > 25 µM | 29% | 16% | > 25 µM | > 25 µM
3 | N#Cc1c(/C=C/c2csc(NC(=O)c3cc(OC(F)F)cn3Cc3ccnc(F)c3)n2)ncn1C1CC1 [Compound A27, (E)-N-(4-(2-(5-cyano-1-cyclopropyl-1H-imidazol-4-yl)vinyl)thiazol-2-yl)-4-(difluoromethoxy)-1-((2-fluoropyridin-4-yl)methyl)-1H-pyrrole-2-carboxamide] | 70% | 2.11 µM | 235 | 0.009 µM | 3.09 µM | 340.0 | 2% | 17.8 µM | 78% | 47% | 2.55 µM | > 25 µM
4 | N#Cc1c(/C=C/c2csc(NC(=O)c3cc(Cl)cn3Cc3ccnc(F)c3)n2)ncn1C1CC1 [Compound A28, (E)-4-chloro-N-(4-(2-(5-cyano-1-cyclopropyl-1H-imidazol-4-yl)vinyl)thiazol-2-yl)-1-((2-fluoropyridin-4-yl)methyl)-1H-pyrrole-2-carboxamide] | 67% | 1.49 µM | 68 | 0.022 µM | 1.51 µM | 69.0 | 2% | > 25 µM | 22% | 9% | 1.4 µM | 15.5 µM
5 | O=C(Nc1nc(/C=C/c2ncn(C3CC3)c2Cl)cs1)c1cc(C(F)F)cn1Cc1ccnc(F)c1 [Compound A29, (E)-N-(4-(2-(5-chloro-1-cyclopropyl-1H-imidazol-4-yl)vinyl)thiazol-2-yl)-4-(difluoromethyl)-1-((2-fluoropyridin-4-yl)methyl)-1H-pyrrole-2-carboxamide] | 21% | > 25 µM | >517 | 0.048 µM | > 25 µM | >650 | 1% | > 25 µM | 51% | 43% | > 25 µM | > 25 µM
6 | O=C(Nc1nc(/C=C/c2ncn(C3CC3)c2Cl)cs1)c1cc(C(F)(F)F)cn1Cc1ccnc(F)c1 [Compound A30, (E)-N-(4-(2-(5-chloro-1-cyclopropyl-1H-imidazol-4-yl)vinyl)thiazol-2-yl)-1-((2-fluoropyridin-4-yl)methyl)-4-(trifluoromethyl)-1H-pyrrole-2-carboxamide] | 44% | 2.16 µM | 292 | 0.007 µM | 2.13 µM | 290.0 | <1% | > 25 µM | 63% | 70% | 2.39 µM | > 25 µM
7 | O=C(Nc1nc(/C=C/c2ncn(C3CC3)c2Cl)cs1)c1cc(SC(F)(F)F)cn1Cc1ccnc(F)c1 [Compound A31, (E)-N-(4-(2-(5-chloro-1-cyclopropyl-1H-imidazol-4-yl)vinyl)thiazol-2-yl)-1-((2-fluoropyridin-4-yl)methyl)-4-((trifluoromethyl)thio)-1H-pyrrole-2-carboxamide] | 82% | 1.26 µM | 317 | 0.004 µM | > 25 µM | >6300 | 65% | 22.7 µM | 10% | 25% | 2.21 µM | > 25 µM
